This note sets out measurements from ChEMBL document CHEMBL1136487, “Novel non-vanilloid VR1 antagonist of high analgesic effects and its structural requirement for VR1 antagonistic effects” (Bioorg Med Chem Lett, 2003).

A word on the IC50: it is the point on the concentration scale where inhibition reaches its midpoint. Lower therefore signals greater potency in that assay.

This test concerns the target Vanilloid receptor (Rattus norvegicus, UniProt Q9ERZ8+Q9WUD2+O35433). Briefly: Inhibition of [Ca2+] uptake in dorsal root ganglion (DRG) neurons from neonatal Sprague-Dawley rat. The class given is functional, tissue-based.

In the case of `CC(C)(C)c1ccc(C/N=C(\S)NCc2cccc(F)c2)cc1`, the concentration for half-maximal inhibition (IC50) was more than 30000 nM.
For `CC(C)(C)c1ccc(CNC(=S)NCc2ccc(NS(C)(=O)=O)c(F)c2)cc1`, the IC50 was determined as 37 nM.
The molecule `Oc1cc2c(cc1O)CN(C(=S)NCCc1ccc(Cl)cc1)CCC2` [CAPSAZEPINE] gave an IC50 of 590 nM.
